#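 Briefly, cells in 96-well plates were exposed to five compound concentrations for 48 h, and endpoints were estimated by linear interpolation. TGI: total growth inhibition.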
# Legend:
# Test in all cases: DTP human tumour cell line panel, 48 h
# PC-3 prostate = test system: PC-3 prostate
# COLO 205 colon = test system: COLO 205 colon
# DU-145 prostate = test system: DU-145 prostate
# SK-MEL-2 melanoma = test system: SK-MEL-2 melanoma
# K-562 leukemia = test system: K-562 leukemia
# MDA-MB-231 breast = test system: MDA-MB-231 breast
# KM12 colon = test system: KM12 colon
# NCI-H522 lung = test system: NCI-H522 lung
# A549 NSCLC = test system: A549 NSCLC
# 786-0 renal = test system: 786-0 renal
# NCI-H460 lung = test system: NCI-H460 lung
# UO-31 renal = test system: UO-31 renal
# UACC-62 melanoma = test system: UACC-62 melanoma
# BT-549 breast = test system: BT-549 breast
# NCI/ADR-RES ovarian = test system: NCI/ADR-RES ovarian
# UACC-257 melanoma = test system: UACC-257 melanoma
# HCT-116 colon = test system: HCT-116 colon
# M14 melanoma = test system: M14 melanoma
# HCC-2998 colon = test system: HCC-2998 colon
# MDA-MB-435 = test system: MDA-MB-435
# TK-10 renal = test system: TK-10 renal
# RXF 393 renal = test system: RXF 393 renal
# SN12C renal = test system: SN12C renal
# SK-MEL-28 melanoma = test system: SK-MEL-28 melanoma
# LOX IMVI melanoma = test system: LOX IMVI melanoma
# EKVX NSCLC = test system: EKVX NSCLC
# NCI-H23 lung = test system: NCI-H23 lung
# OVCAR-5 ovarian = test system: OVCAR-5 ovarian
# SW-620 colon = test system: SW-620 colon
# CAKI-1 renal = test system: CAKI-1 renal
# MDA-N = test system: MDA-N
# RPMI-8226 leukemia = test system: RPMI-8226 leukemia
# A498 renal = test system: A498 renal
# MALME-3M melanoma = test system: MALME-3M melanoma
# HT29 colon = test system: HT29 colon
# OVCAR-4 ovarian = test system: OVCAR-4 ovarian
# SF-295 CNS = test system: SF-295 CNS
# SK-OV-3 ovarian = test system: SK-OV-3 ovarian
# T-47D breast = test system: T-47D breast
# SF-268 CNS = test system: SF-268 CNS
# IGROV1 ovarian = test system: IGROV1 ovarian
# SNB-75 CNS = test system: SNB-75 CNS
# HS 578T breast = test system: HS 578T breast
# HOP-92 NSCLC = test system: HOP-92 NSCLC
# HL-60(TB) leukemia = test system: HL-60(TB) leukemia
# U251 CNS = test system: U251 CNS
# SNB-19 CNS = test system: SNB-19 CNS
# ACHN renal = test system: ACHN renal
# HOP-62 NSCLC = test system: HOP-62 NSCLC
# MOLT-4 leukemia = test system: MOLT-4 leukemia
# MCF7 breast = test system: MCF7 breast
# SK-MEL-5 melanoma = test system: SK-MEL-5 melanoma
# SR leukemia = test system: SR leukemia
# NCI-H226 lung = test system: NCI-H226 lung
# OVCAR-8 ovarian = test system: OVCAR-8 ovarian
# CCRF-CEM leukemia = test system: CCRF-CEM leukemia
# OVCAR-3 ovarian = test system: OVCAR-3 ovarian
# HCT-15 colon = test system: HCT-15 colon
# SF-539 CNS = test system: SF-539 CNS
smiles,measurement,setting,value
CCCNC(=O)N1CC(CN2CCN(c3ccccc3)CC2)O/C1=N/C(=O)Nc1ccccc1 (stereo not given),TGI,PC-3 prostate,> 100 µM
same,TGI,COLO 205 colon,74.1 µM
same,TGI,DU-145 prostate,> 100 µM
same,TGI,SK-MEL-2 melanoma,> 100 µM
same,TGI,K-562 leukemia,> 100 µM
same,TGI,MDA-MB-231 breast,> 100 µM
same,TGI,KM12 colon,> 100 µM
same,TGI,NCI-H522 lung,> 100 µM
same,TGI,A549 NSCLC,> 100 µM
same,TGI,786-0 renal,> 100 µM
same,TGI,NCI-H460 lung,> 100 µM
same,TGI,UO-31 renal,> 100 µM
same,TGI,UACC-62 melanoma,> 100 µM
same,TGI,BT-549 breast,> 100 µM
same,TGI,NCI/ADR-RES ovarian,> 100 µM
same,TGI,UACC-257 melanoma,> 100 µM
same,TGI,HCT-116 colon,> 100 µM
same,TGI,M14 melanoma,> 100 µM
same,TGI,HCC-2998 colon,> 100 µM
same,TGI,MDA-MB-435,> 100 µM
same,TGI,TK-10 renal,> 100 µM
same,TGI,RXF 393 renal,> 100 µM
same,TGI,SN12C renal,> 100 µM
same,TGI,SK-MEL-28 melanoma,> 100 µM
same,TGI,LOX IMVI melanoma,> 100 µM
same,TGI,EKVX NSCLC,> 100 µM
same,TGI,NCI-H23 lung,> 100 µM
same,TGI,OVCAR-5 ovarian,> 100 µM
same,TGI,SW-620 colon,> 100 µM
same,TGI,CAKI-1 renal,> 100 µM
same,TGI,MDA-N,> 100 µM
same,TGI,RPMI-8226 leukemia,> 100 µM
same,TGI,A498 renal,> 100 µM
same,TGI,MALME-3M melanoma,> 100 µM
same,TGI,HT29 colon,> 100 µM
same,TGI,OVCAR-4 ovarian,> 100 µM
same,TGI,SF-295 CNS,> 100 µM
same,TGI,SK-OV-3 ovarian,> 100 µM
same,TGI,T-47D breast,> 100 µM
same,TGI,SF-268 CNS,> 100 µM
same,TGI,IGROV1 ovarian,> 100 µM
same,TGI,SNB-75 CNS,> 100 µM
same,TGI,HS 578T breast,> 100 µM
same,TGI,HOP-92 NSCLC,> 100 µM
same,TGI,HL-60(TB) leukemia,> 100 µM
same,TGI,U251 CNS,> 100 µM
same,TGI,SNB-19 CNS,> 100 µM
same,TGI,ACHN renal,> 100 µM
same,TGI,HOP-62 NSCLC,> 100 µM
same,TGI,MOLT-4 leukemia,> 100 µM
same,TGI,MCF7 breast,> 100 µM
same,TGI,SK-MEL-5 melanoma,94.1 µM
CCCC(=O)NC(Nc1ccc(S(=O)(=O)Nc2ccc(OC)nn2)cc1)(C(F)(F)F)C(F)(F)F,TGI,PC-3 prostate,> 100 µM
same,TGI,COLO 205 colon,> 100 µM
same,TGI,DU-145 prostate,> 100 µM
same,TGI,SK-MEL-2 melanoma,> 100 µM
same,TGI,K-562 leukemia,> 100 µM
same,TGI,SR leukemia,> 100 µM
same,TGI,MDA-MB-231 breast,> 100 µM
same,TGI,KM12 colon,> 100 µM
same,TGI,NCI-H522 lung,> 100 µM
same,TGI,A549 NSCLC,> 100 µM
same,TGI,786-0 renal,> 100 µM
same,TGI,NCI-H226 lung,> 100 µM
same,TGI,NCI-H460 lung,> 100 µM
same,TGI,UO-31 renal,> 100 µM
same,TGI,UACC-62 melanoma,> 100 µM
same,TGI,BT-549 breast,> 100 µM
same,TGI,NCI/ADR-RES ovarian,> 100 µM
same,TGI,UACC-257 melanoma,> 100 µM
same,TGI,HCT-116 colon,> 100 µM
same,TGI,M14 melanoma,> 100 µM
same,TGI,HCC-2998 colon,> 100 µM
same,TGI,MDA-MB-435,> 100 µM
same,TGI,OVCAR-8 ovarian,> 100 µM
same,TGI,TK-10 renal,> 100 µM
same,TGI,RXF 393 renal,> 100 µM
same,TGI,SN12C renal,> 100 µM
same,TGI,SK-MEL-28 melanoma,> 100 µM
same,TGI,LOX IMVI melanoma,> 100 µM
same,TGI,CCRF-CEM leukemia,> 100 µM
same,TGI,EKVX NSCLC,> 100 µM
same,TGI,NCI-H23 lung,> 100 µM
same,TGI,OVCAR-3 ovarian,> 100 µM
same,TGI,OVCAR-5 ovarian,> 100 µM
same,TGI,SW-620 colon,> 100 µM
same,TGI,HCT-15 colon,> 100 µM
same,TGI,CAKI-1 renal,> 100 µM
same,TGI,MDA-N,> 100 µM
same,TGI,RPMI-8226 leukemia,> 100 µM
same,TGI,A498 renal,> 100 µM
same,TGI,MALME-3M melanoma,> 100 µM
same,TGI,HT29 colon,> 100 µM
same,TGI,OVCAR-4 ovarian,> 100 µM
same,TGI,SF-295 CNS,> 100 µM
same,TGI,SK-OV-3 ovarian,> 100 µM
same,TGI,T-47D breast,> 100 µM
same,TGI,SF-268 CNS,> 100 µM
same,TGI,IGROV1 ovarian,> 100 µM
same,TGI,SNB-75 CNS,> 100 µM
same,TGI,HS 578T breast,> 100 µM
same,TGI,HOP-92 NSCLC,> 100 µM
same,TGI,HL-60(TB) leukemia,> 100 µM
same,TGI,U251 CNS,> 100 µM
same,TGI,SNB-19 CNS,> 100 µM
same,TGI,ACHN renal,> 100 µM
same,TGI,HOP-62 NSCLC,> 100 µM
same,TGI,SF-539 CNS,> 100 µM
same,TGI,MOLT-4 leukemia,> 100 µM
same,TGI,SK-MEL-5 melanoma,> 100 µM

# From PubChem BioAssay (NCI)
